Experimental data published in ChEMBL document CHEMBL5620352, “Discovery of highly potent and selective VEGFR2 kinase inhibitors for the treatment of rheumatoid arthritis” (Eur J Med Chem, 2023).

Assays:
Format in all cases: ADME, organism-based
[1] = Apparent clearance in Sprague-Dawley rat at 10 mg/kg, po measured upto 24 hrs by LC-MS/MS analysis; conditions: in vivo, read-out: CL(app) (converted)
[2] = Cmax in Sprague-Dawley rat at 1 mg/kg, iv measured upto 24 hrs by LC-MS/MS analysis; conditions: in vivo
[3] = Half life in Sprague-Dawley rat at 1 mg/kg, iv measured upto 24 hrs by LC-MS/MS analysis; conditions: in vivo
[4] = Apparent volume of distribution in Sprague-Dawley rat at 1 mg/kg, iv measured upto 24 hrs by LC-MS/MS analysis; conditions: in vivo, read-out: Vz
[5] = Apparent volume of distribution in Sprague-Dawley rat at 10 mg/kg, po measured upto 24 hrs by LC-MS/MS analysis; conditions: in vivo
[6] = Half life in Sprague-Dawley rat at 10 mg/kg, po measured upto 24 hrs by LC-MS/MS analysis; conditions: in vivo
[7] = AUC(0 to infinity) in Sprague-Dawley rat at 10 mg/kg, po measured upto 24 hrs by LC-MS/MS analysis; conditions: in vivo
[8] = Cmax in Sprague-Dawley rat at 10 mg/kg, po measured upto 24 hrs by LC-MS/MS analysis; conditions: in vivo
[9] = AUC(0 to infinity) in Sprague-Dawley rat at 1 mg/kg, iv measured upto 24 hrs by LC-MS/MS analysis; conditions: in vivo
[10] = Apparent clearance in Sprague-Dawley rat at 1 mg/kg, iv measured upto 24 hrs by LC-MS/MS analysis; conditions: in vivo, read-out: CL(app) (converted)
[11] = Oral bioavailability in Sprague-Dawley rat at 10 mg/kg measured upto 24 hrs by LC-MS/MS analysis; conditions: in vivo

CL/F [1]: 39.4 L/h/kg | Cmax [2]: 0.689 µg/mL | half-life [3]: 16.8 min | Vd [4]: 2.16 L/kg | Vz [5]: 39.752 L/kg | half-life [6]: 47.4 min | AUC(0-inf) [7]: 0.274 µg·h/mL | Cmax [8]: 0.113 µg/mL | AUC(0-inf) [9]: 0.175 µg·h/mL | clearance [10]: 5.76 L/h/kg | bioavailability [11]: 15%
Structure (SMILES): COc1cccc(C(=O)Nc2cccc(Sc3ccc4c(NC(C)=O)n[nH]c4c3)c2)c1
